Source: patent US6165493A, “"Methods and compositions for decreasing the frequency of HIV, herpesvirus and sexually transmitted bacterial infections"” (New York Blood Center, Inc., priority 1998, dated 2000)
Peptide text beside a SMILES is read from it.

system: HIV-1; experiment: inhibition of fusion between HIV-1 IIIB infected H9 cells and uninfected MT-2 cells; type: cell-based; conditions: Human immunodeficiency virus 1, MT2, 1 h, read-out: Inhibition of Cell Fusion ED50 ± SD (effective dose for 50% inhibition of HIV-1 induced cell fusion); Table 1A; -- = none at 1000 μg/ml

Row | Molecule | IC50 [µg/mL]
1 | COC(=O)[C@H](Cc1ccccc1)NC(=O)[C@@H](N)CC(=O)O [Aspartame] (HELM PEPTIDE1{D.F.[CO[*:1]]}$$$$V2.0) | > 1000
2 | CCCCCCCCCCCCCCCCCCOC(=O)/C=C/C(=O)[O-].[Na+] [Sodium Stearyl Fumarate] | > 1000
3 | O=[N+]([O-])C(Br)(CO)CO [Bronopol] | > 1000
4 | CCCCCCCCCCCCCCCC(=O)OC[C@H](O)[C@H]1OC(=O)C(O)=C1O [Ascorbyl Palmitate] | > 1000
5 | CC1=CC(=O)NS(=O)(=O)O1 [Acesulfame Potassium] | > 1000
6 | C/C=C/C=C/C(=O)O [Sorbic Acid] | > 1000
7 | CCCOC(=O)c1cc(O)c(O)c(O)c1 [Propyl Gallate] | > 1000
8 | O=S(=O)(O)NC1CCCCC1 [Sodium Cyclamate] | > 1000
9 | O=C1NS(=O)(=O)c2ccccc21 [Saccharin] | > 1000
10 | O=C(NCNC(=O)NC1C(=O)NC(=O)N1CO)NC1C(=O)NC(=O)N1CO (centres unmarked) [Imidurea] | > 1000
11 | COC(=O)c1ccc(O)cc1 [Methylparaben] | > 1000
12 | Cc1cc(C(C)(C)C)c(O)c(C(C)(C)C)c1 [Butylated Hydroxytoluene] | > 1000
13 | CC1CCC(C(C)C)C(O)C1 (centres unmarked) [Menthol] | > 1000
14 | CCOC(=O)c1ccc(O)cc1 [Ethylparaben] | > 1000
15 | CCCCOC(=O)c1ccc(O)cc1 [Butylparaben] | > 1000
16 | COc1cc(C=O)ccc1O [Vanillin] | > 1000
17 | CC(=O)OCC(COC(C)=O)OC(C)=O [Triacetin] | > 1000
18 | CC1COC(=O)O1 (centres unmarked) [Propylene Carbonate] | > 1000
19 | CCCOC(=O)c1ccc(O)cc1 [Propylparaben] | > 1000
20 | Cc1occc(=O)c1O [Maltol] | > 1000
21 | CCCCOC(=O)CCCCCCCCC(=O)OCCCC [Dibutyl Sebacate] | > 1000
22 | Cc1cc(O)ccc1Cl [Chlorocresol] | > 1000
23 | O=C(OCc1ccccc1)c1ccccc1 [Benzyl Benzoate] | > 1000

system: HIV-1; experiment: disintegration of HIV-1 measured by release of p24; design: species or system HIV-1 IIIB; conditions: 5 minutes at 37° C.
Description: With respect of FIG. 3, serial dilutions of untreated and treated HIV-1 were tested for p24 by ELISA. As a positive control, HIV-1 treated with the detergent NP40 was also tested. The results obtained with the "[…]"-glycerol formulation containing PVP and Crospovidone and N-40 were identical and indicated an 100-fold increase of released p24 antigen, as compared to background levels corresponding to untreated virus. The infectivity of HIV-1 was also eliminated by treatment with the "[…]"-glycerol formulation containing PVP and Crospovidone.
To determine whether or not the CAP Formulations affect the integrity of HIV-1, a preparation of purified virus (strain IIIB; 5 μl; 1.52×10^10 virus particles/ml; Advanced Biotechnologies, Columbia, Md.) was mixed with 45 μl of 0.14 M NaCl and 50 μl of the respective CAP Formulation, each prewarmed to 37° C. After 5 minutes at 37° C., 400 μl of 0.14 M NaCl were added, and the mixture was filtered through a 0.45μ filter prewashed with 0.14 M NaCl, 0.01 M Tris pH 7.2, 0.02 NaN3 (TS). Serial 5-fold dilutions of the filtrate were tested by ELISA for the p24 antigen, as described above. In control experiments, either untreated HIV-1 IIIB or virus treated with the detergent NP40 (final concentration 5 mg/ml; 5 minutes at 37° C.) were equally diluted and tested for the p24 antigen. […]

Row | Molecule | increase of released p24 antigen compared to untreated virus [fold]
24 | NP40 | 100

system: HIV-1; experiment: not given; conditions: cited from earlier work

Row | Molecule | in vitro inactivation of HIV-1
25 | nonoxynol-9 [N-9] | shown to inactivate in vitro

system: HSV-2; experiment: not given; conditions: cited from earlier work

Row | Molecule | in vitro inactivation of HSV-2
26 | nonoxynol-9 [N-9] | shown to inactivate in vitro

system: Chlamydia trachomatis; experiment: not given; conditions: cited from earlier work

Row | Molecule | in vitro inactivation of Chlamydia trachomatis
27 | nonoxynol-9 [N-9] | shown to inactivate in vitro

system: not given; experiment: not given; conditions: some N-9 formulations; cited from earlier work

Row | Molecule | clinical adverse effects
28 | nonoxynol-9 [N-9] | adverse effects

system: heterosexual HIV-1, gonorrhea and chlamydia transmission; experiment: not given; conditions: one of the N-9 formulations; cited from earlier work

Row | Molecule | efficacy in decreasing rate of heterosexual HIV-1, gonorrhea and chlamydia transmission
29 | nonoxynol-9 [N-9] | lack of efficacy
